Results taken from patent publication US9573907B2, “2, 4-pyrimidine derivatives and use thereof” (SNU R&DB FOUNDATION, priority 2009, dated 2017).
“Also recorded” adds a separate entry of the source.

Key:
gp96 = gp96 (Homo sapiens, UniProt P14625); test: ATPase activity of gp96 (ATPase assay kit); format: biochemical; conditions: 0 vs. 100 μM
Description: FIG. 22 represents the effect of point mutations on the ATPase activity of gp96. (a) The effect of gp96 point mutations on its ATPase activity was examined using ATPase assay kit (Innova Biosciences, Cambridge, UK). One unit is the amount of enzyme that catalyzes the reaction of 1 μmol of substrate per minute. The enzymatic activity was calculated according to manufacturer's instruction.
FIG. 23 represents the effect of GPM1 on the ATPase activity gp96. (a) The dose-dependent effect of GPM1 on the ATPase activity.

[1] = target: interaction of gp96 and AIMP1 (Mus musculus, UniProt P08113); test: ELISA assay of gp96-AIMP1 interaction; format: binding, murine
Description: FIGS. 1 to 9 represent suppression of cell surface gp96 by GPM1 reduces DC maturation and B220^+ population in gp96tm transgenic mice. (FIG. 1) Chemical structure of GPM1 (Formula 2) and negative control (NC1, Formula 16) used in this study. (FIG. 2) The dose-dependent effect of GPM1 or NC1 on the AIMP1-gp96 interaction using ELISA method as described. The indicated concentrations of the two compounds and biotin-conjugated murine gp96 were added to AIMP1 coated on the surface of microtiter wells, and gp96 bound to AIMP1 was detected with strepavidin-conjugated peroxidase. (FIG. 3) The binding of GPM1 to gp96 was examined by surface plasmon resonance (SPR). GPM1 at the indicated concentrations was injected to immobilized gp96 and the binding was measured using Biacore 3000. The response data were processed using data from a reference surface and buffer injections. Each concentration was tested in triplicate. (FIG. 4) RAW24.7 cells were treated with 10 μM GPM1 for 24 h. Cell lysates were immunoprecipitated with control IgG or anti-gp96 antibody and the immunoprecipitated proteins were immunoblotted with anti-KDELR1, antiAIMP1 and gp96 antibodies. WCL means whole cell lysate. (FIG. 5) Splenocytes isolated from C57BL/6 mice were treated with vehicle (5% DMSO in PBS), GPM1, or NC1 (10 μM, 24 h), stained for cell surface gp96, and followed by flow cytometry. (FIG. 6) AIMP1^+/+ or AIMP1^−/− mouse splenocytes (2×10^5 cells) were treated with vehicle, GPM1, or NC1 (10 μM, 24 h), fixed, and then co-cultured with WT bone marrow-derived DCs (1×10^4 cells) for 16 h. TNFα secreted from BMDCs was quantified by ELISA. (FIG. 7) Percentage of gp96^+ MHC class II^+ cell population in splenocytes from gp96tm transgenic female mice treated with vehicle (control) (n=9), GPM1 (n=9), and dexamethasone (n=7) at 30 mg/kg. (FIG. 8) Cell surface ICOSL of CD11b^+CD11c^+ (myeloid DCs), CD11b^−CD11c^+ (lymphoid DCs), and CD11b^+CD11c^− (macrophages) cell populations in splenocytes from gp96tm transgenic female mice treated with vehicle (n=9) and GPM1 (n=9) at 30 mg/kg. (FIG. 9) Percentage of B220^+, MHC class II^+, CD4^+, CD8^+, CD4 and CD8 double negative cell populations in splenocytes from gp96tm transgenic female mice treated with vehicle (n=9), GPM1 (n=9), and dexamethasone (n=7) at 30 mg/kg. Student t-test P values comparing GPM1-treated mice with control are indicated.
96-well plates (Maxisorp., F96; Nunc) were coated with 500 ng/well AIMP1 in PBS (pH 7.4). After washing, the remaining sites were blocked with PBS containing 1% BSA for 1 h. Binding of 10 ng/well biotin-conjugated gp96 was performed in Tris buffer (25 mM Tris, 10 mM NaCl and 0.4% Triton X-100). Each of the 6,580 compounds was added to the well at 100 nM and the plates were washed and incubated with HRP conjugated streptavidin in PBS containing 0.1% BSA and 0.1% Tween 20 for 30 min. The plates were washed, and then substrate was added to each well. The absorbance was monitored at 450 nm.
To identify chemicals that can affect membrane translocation of gp96, the present inventors employed the interaction of gp96 with AIMP1 as the screening target. For this screening, the present inventors chose 6,482 chemicals with different pharmacophore representing 150,000 different chemicals deposited in Korea Chemical Bank and identified the compounds that can inhibit the interaction of the two proteins. For the screening, the present inventors set up a modified ELISA method using recombinant AIMP1 and gp96 proteins as described in Experimental methods. Each of the tested compounds gave different effect on the interaction of the two proteins (FIG. 19). And the present inventors have selected 12 compounds that inhibited the interaction more than 95% of the control at 0.1 μM (Table 1). The present inventors obtained 1251 additional compounds derived from these 12 initial hits and tested them again for their activities against the gp96-AIMP1 interaction.

[2] = target: T1, interaction of gp96 with KDELR1 (Mus musculus, UniProt P08113); test: Co-immunoprecipitation of gp96 with KDELR1 in RAW24.7 cells; format: cell-based; conditions: 10 μM, 24 h
T1 construct: endogenous in cells; host or cells: RAW24.7 (RAW264.7) cells
Description: FIGS. 1 to 9 represent suppression of cell surface gp96 by GPM1 reduces DC maturation and B220^+ population in gp96tm transgenic mice. (FIG. 1) Chemical structure of GPM1 (Formula 2) and negative control (NC1, Formula 16) used in this study. (FIG. 2) The dose-dependent effect of GPM1 or NC1 on the AIMP1-gp96 interaction using ELISA method as described. The indicated concentrations of the two compounds and biotin-conjugated murine gp96 were added to AIMP1 coated on the surface of microtiter wells, and gp96 bound to AIMP1 was detected with strepavidin-conjugated peroxidase. (FIG. 3) The binding of GPM1 to gp96 was examined by surface plasmon resonance (SPR). GPM1 at the indicated concentrations was injected to immobilized gp96 and the binding was measured using Biacore 3000. The response data were processed using data from a reference surface and buffer injections. Each concentration was tested in triplicate. (FIG. 4) RAW24.7 cells were treated with 10 μM GPM1 for 24 h. Cell lysates were immunoprecipitated with control IgG or anti-gp96 antibody and the immunoprecipitated proteins were immunoblotted with anti-KDELR1, antiAIMP1 and gp96 antibodies. WCL means whole cell lysate. […] TNFα secreted from BMDCs was quantified by ELISA. […]

Chain of gp96 (P14625 22-803): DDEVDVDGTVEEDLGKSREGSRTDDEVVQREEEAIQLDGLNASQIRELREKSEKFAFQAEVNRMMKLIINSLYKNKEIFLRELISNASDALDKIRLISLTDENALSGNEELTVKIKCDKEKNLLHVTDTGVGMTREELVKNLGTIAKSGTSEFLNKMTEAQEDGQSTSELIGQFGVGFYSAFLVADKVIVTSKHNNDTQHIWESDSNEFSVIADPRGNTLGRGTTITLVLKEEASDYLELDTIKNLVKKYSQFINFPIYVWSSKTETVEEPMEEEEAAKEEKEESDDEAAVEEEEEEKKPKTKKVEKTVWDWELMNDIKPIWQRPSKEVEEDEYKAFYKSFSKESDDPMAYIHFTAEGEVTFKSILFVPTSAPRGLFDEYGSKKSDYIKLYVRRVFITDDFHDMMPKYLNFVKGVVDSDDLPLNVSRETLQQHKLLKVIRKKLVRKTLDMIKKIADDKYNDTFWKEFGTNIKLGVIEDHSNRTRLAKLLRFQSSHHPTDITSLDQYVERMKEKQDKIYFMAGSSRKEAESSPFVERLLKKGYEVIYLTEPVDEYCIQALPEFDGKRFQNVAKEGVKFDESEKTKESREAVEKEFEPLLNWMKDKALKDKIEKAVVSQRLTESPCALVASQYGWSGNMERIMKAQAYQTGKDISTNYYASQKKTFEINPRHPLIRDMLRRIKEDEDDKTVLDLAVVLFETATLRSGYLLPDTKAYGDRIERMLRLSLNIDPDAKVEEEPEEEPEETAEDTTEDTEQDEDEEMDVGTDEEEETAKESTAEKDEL
T1 sequence (P08113 22-802): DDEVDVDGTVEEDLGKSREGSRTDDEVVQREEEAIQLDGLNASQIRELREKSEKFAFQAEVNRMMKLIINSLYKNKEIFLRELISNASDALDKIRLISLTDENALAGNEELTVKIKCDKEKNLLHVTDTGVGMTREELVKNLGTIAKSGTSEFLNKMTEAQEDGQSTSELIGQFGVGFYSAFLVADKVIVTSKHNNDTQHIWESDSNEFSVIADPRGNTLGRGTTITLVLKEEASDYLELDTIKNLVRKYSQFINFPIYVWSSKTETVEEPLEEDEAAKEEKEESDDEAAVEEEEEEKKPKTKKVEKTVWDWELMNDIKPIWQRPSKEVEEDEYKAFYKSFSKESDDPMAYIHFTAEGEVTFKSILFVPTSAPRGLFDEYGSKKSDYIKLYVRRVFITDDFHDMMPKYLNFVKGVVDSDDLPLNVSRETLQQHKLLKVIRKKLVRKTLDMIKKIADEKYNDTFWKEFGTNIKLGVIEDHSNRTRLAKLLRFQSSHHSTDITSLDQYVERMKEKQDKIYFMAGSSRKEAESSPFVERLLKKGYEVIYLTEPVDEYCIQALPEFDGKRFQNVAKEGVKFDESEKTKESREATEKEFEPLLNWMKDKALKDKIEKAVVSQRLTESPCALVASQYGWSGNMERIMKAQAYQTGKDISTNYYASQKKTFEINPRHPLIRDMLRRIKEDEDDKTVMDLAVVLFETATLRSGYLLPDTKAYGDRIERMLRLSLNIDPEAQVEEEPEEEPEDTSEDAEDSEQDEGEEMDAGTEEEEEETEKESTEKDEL
Chain of interaction of gp96 and AIMP1 (P08113 22-802): as above

COC(=O)[C@@H](Oc1nc(OC)cc(OC)n1)C(C)C [GPM1, (S)-methyl 2-(4,6-dimethoxypyrimidin-2-yloxy)-3-methylbutanoate]
effect on the gp96 ATPase activity (gp96): little effect; also recorded: did not affect | IC50 ([1]; dose-dependent effect, ELISA, read-out: 50% inhibition of the interaction of gp96 and AIMP1): ~0.03 µM | inhibition at 0.1 µM ([1]; read-out: Inhibition rate (at 100 nM; %)): 95% | interaction of gp96 with KDELR1 ([2]; RAW24.7 cells, co-immunoprecipitation): increased | cellular levels of gp96, KDER1 and AIMP1 ([2]; whole cell lysate): did not affect
